Experimental data taken from patent US20130174483A1, “PLANT ARTIFICIAL SEEDS AND METHODS FOR THE PRODUCTION THEREOF” (E I DU PONT DE NEMOURS AND COMPANY, priority 2011, published 2013).

System: sugarcane plantlet, cultivar CPO-1372
Details: in vivo
Procedure: Wax paper containers were cut into 4 cm and 7 cm lengths. One open end of each container was secured with either a 38 um thick LDL film, prepared as described in Example 25, or a 254 um thick soybean oil gel film. The latter was prepared by dissolving Kraton® A1535 poly(styrene-b-ethylene-co-butylene-co-styrene-b-styrene) triblock polymer in soybean oil (MP Biomedicals, Solon, Ohio) at 9 wt. % and 155° C., and casting the hot solution on a glass substrate using a doctor blade with a 5 cm wide and 254 um thick gap, preheated to 155° C. Upon cooling to room temperature, the physical gelation of the triblock polymer in the oil yielded a solid, but highly deformable film. LDL film was affixed to the wax paper container using a thin layer of cyanoacrylate adhesive (Sigma-Aldrich, St. Louis, Mo.). Soybean oil gel film was affixed by heating the film, still adhered to the glass substrate, to near its sol-gel transition (approximately 80° C.), pressing the end of the wax-paper container into the softened film, and cooling to room temperature to re-solidify the film.
The 4 and 7 cm wax paper containers, having their bottom ends secured with LDL or soybean oil gel film, were then loaded approximately one-third full with dry Metro-Mix® 360 growing media. One regenerated sugarcane plantlet was then added to each container. […]

“poly(lactide-b-dimethylsiloxane-b-lactide) [LDL]” was tested. Which “discoloration of plantlet shoots in contact with the closure (phytotoxicity)” value did it give?
Its value is “no discoloration”.
